Results: ChEMBL document CHEMBL1201862, “PubChem BioAssay data set” (2004)
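Briefly, cells in 96-well plates were exposed to five compound concentrations for 48 h, and endpoints were estimated by linear interpolation. The concentration for 50% growth inhibition is given as GI50.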 Activity calls are given as the source filed them. No stated cut-off is given here; in the data, active = GI50 up to about 1.1 µM and inactive = higher.

Legend:
Assay in all cases: growth of human tumour cells (NCI), 48 h
HL-60 = system: HL-60
SK-MEL-28 = system: SK-MEL-28
HCC 2998 = system: HCC 2998
CAKI-1 = system: CAKI-1
NCI-H226 = system: NCI-H226
SW-620 = system: SW-620
MCF7 = system: MCF7
PC-3 = system: PC-3
Hs-578T = system: Hs-578T
SF-539 = system: SF-539
EKVX = system: EKVX
MDA-MB-231 = system: MDA-MB-231
SR = system: SR
RXF 393 = system: RXF 393
HCT-15 = system: HCT-15
K562 = system: K562
COLO 205 = system: COLO 205
HOP-92 = system: HOP-92
OVCAR-5 = system: OVCAR-5
M14 = system: M14

| SMILES | GI50 (HL-60) | GI50 (SK-MEL-28) | GI50 (HCC 2998) | GI50 (CAKI-1) | GI50 (NCI-H226) | GI50 (SW-620) | GI50 (MCF7) | GI50 (PC-3) | GI50 (Hs-578T) | GI50 (SF-539) | GI50 (EKVX) | GI50 (MDA-MB-231) | GI50 (SR) | GI50 (RXF 393) | GI50 (HCT-15) | GI50 (K562) | GI50 (COLO 205) | GI50 (HOP-92) | GI50 (OVCAR-5) | GI50 (M14) |
| --- | --- | --- | --- | --- | --- | --- | --- | --- | --- | --- | --- | --- | --- | --- | --- | --- | --- | --- | --- | --- |
| CSc1c(C#N)c(O)n(-c2ccc(Cl)cc2)c(=O)c1C#N | 28.1 µM (inactive) | > 100 µM (inactive) | > 100 µM (inactive) | 49.4 µM (inactive) | 48.1 µM (inactive) | 61 µM (inactive) | 64.6 µM (inactive) | > 100 µM (inactive) | > 100 µM (inactive) | > 100 µM (inactive) | > 100 µM (inactive) | > 100 µM (inactive) | > 100 µM (inactive) | > 100 µM (inactive) | 97.9 µM | 35.6 µM (inactive) | > 100 µM (inactive) | 30.8 µM (inactive) | > 100 µM (inactive) | > 100 µM (inactive) |
| C=CCN1C(=O)/C(=C/c2cccs2)N=C1SC/C=C/C | 21.3 µM (inactive) | 54.1 µM (inactive) | 48.3 µM (inactive) | 46.9 µM (inactive) | > 100 µM (inactive) | 35.6 µM (inactive) | 26.4 µM (inactive) | 35.6 µM (inactive) | 32.7 µM (inactive) | 58.3 µM (inactive) | 33.6 µM (inactive) | 68.1 µM (inactive) | 18.5 µM (inactive) | 22.8 µM (inactive) | 33.5 µM | 32.5 µM (inactive) | 31.6 µM (inactive) | 24.6 µM (inactive) | 65.6 µM (inactive) | 69.5 µM (inactive) |
| C=CCc1cc(-c2cc(CC=C)c(O)c(CN(CCCl)CCCl)c2)cc(CN(CCCl)CCCl)c1O | 3.09 µM (inactive) | 17.8 µM (inactive) | 15.6 µM (inactive) | 8.22 µM (inactive) | 15.6 µM (inactive) | 12.3 µM (inactive) | 5.77 µM (inactive) | 9.08 µM (inactive) | 37 µM (inactive) | 12.2 µM (inactive) | 16 µM (inactive) | 18.6 µM (inactive) | 0.627 µM (active) | 12.8 µM (inactive) | 15.5 µM | 32.8 µM (inactive) | 17.7 µM (inactive) | 15.4 µM (inactive) | 18.3 µM (inactive) | 15.4 µM (inactive) |
| Cc1cc(C)nc(NS(=O)(=O)c2ccc(NC(=O)c3ccc4nc5ccccc5c(Nc5ccc(S(N)(=O)=O)cc5)c4c3)cc2)n1 | 57.9 µM (inactive) | 86.7 µM (inactive) | > 100 µM (inactive) | > 100 µM (inactive) | > 100 µM (inactive) | > 100 µM (inactive) | 49.2 µM (inactive) | > 100 µM (inactive) | 91.2 µM (inactive) | > 100 µM (inactive) | > 100 µM (inactive) | 94.2 µM (inactive) | 40.1 µM (inactive) | 33 µM (inactive) | > 100 µM | 40 µM (inactive) | > 100 µM (inactive) | 51.3 µM (inactive) | > 100 µM (inactive) | > 100 µM (inactive) |
| C[C@H]1[C@H]2[C@H](C[C@@]3(C)C4=CC[C@H]5C(C)(C)[C@@H](OC6OCC(O)C(O)C6O)CC[C@@]56C[C@@]46CC[C@]23C)O[C@@]2(O)[C@@H]1OC(C)(C)[C@H]2O (stereo not given in full) | 6.47 µM (inactive) | 2.48 µM (inactive) | 0.681 µM (active) | 2.05 µM (inactive) | 2.44 µM (inactive) | 1.13 µM (inactive) | 0.867 µM (active) | 1.07 µM (active) | 0.682 µM (active) | 1.95 µM (inactive) | 1.12 µM (inactive) | 1.81 µM (inactive) | 1.54 µM (inactive) | 1.2 µM (inactive) | 1.05 µM | 2.39 µM (inactive) | 2.67 µM (inactive) | 1.09 µM (active) | 4.75 µM (inactive) | 3.83 µM (inactive) |
| [N-]=[N+]=NC1C(O)C(CO)OC1n1ccc(N)nc1=O (stereo not given) | 3.83 µM (inactive) | 416 µM (inactive) | 46.7 µM (inactive) | 185 µM (inactive) | > 625 µM (inactive) | 159 µM (inactive) | 24 µM (inactive) | 182 µM (inactive) | 532 µM (inactive) | 165 µM (inactive) | 429 µM (inactive) | 195 µM (inactive) | 28.5 µM (inactive) | > 206 µM (inactive) | 56.2 µM | 294 µM (inactive) | 160 µM (inactive) | 403 µM (inactive) | 245 µM (inactive) | 26.1 µM (inactive) |
| O=C(Nc1ccccc1)c1cc(S(=O)(=O)Nc2n[nH]c(=O)n2-c2ccccc2)c(S)cc1Cl | > 100 µM (inactive) | > 100 µM (inactive) | > 100 µM (inactive) | > 100 µM (inactive) | > 100 µM (inactive) | > 100 µM (inactive) | > 100 µM (inactive) | > 100 µM (inactive) | > 100 µM (inactive) | > 100 µM (inactive) | > 100 µM (inactive) | > 100 µM (inactive) | > 100 µM (inactive) | > 100 µM (inactive) | > 100 µM | > 100 µM (inactive) | > 100 µM (inactive) | > 100 µM (inactive) | > 100 µM (inactive) | > 100 µM (inactive) |
| COC(=O)C1=CON2C3CC4CC(C3)CC(C4)C12C (stereo not given) | > 100 µM (inactive) | > 100 µM (inactive) | > 100 µM (inactive) | > 100 µM (inactive) | > 100 µM (inactive) | > 100 µM (inactive) | > 100 µM (inactive) | > 100 µM (inactive) | > 100 µM (inactive) | > 100 µM (inactive) | > 100 µM (inactive) | > 100 µM (inactive) | > 100 µM (inactive) | > 100 µM (inactive) | > 100 µM | > 100 µM (inactive) | > 100 µM (inactive) | > 100 µM (inactive) | > 100 µM (inactive) | > 100 µM (inactive) |
| C=C(CN1CC2C[C@](C(=O)OC)(c3cc4ccccc4[nH]3)C1C(OC)C2OC)S(=O)(=O)c1ccccc1 (stereo not given in full) | 1.92 µM (inactive) | 7.53 µM (inactive) | 1.87 µM (inactive) | 3.71 µM (inactive) | 5.07 µM (inactive) | 3.01 µM (inactive) | 3.81 µM (inactive) | 3.19 µM (inactive) | 2.5 µM (inactive) | 4.9 µM (inactive) | 3.3 µM (inactive) | 3.35 µM (inactive) | 2.7 µM (inactive) | 3.19 µM (inactive) | 3.08 µM | 2.75 µM (inactive) | 2.54 µM (inactive) | 0.729 µM (active) | 3.71 µM (inactive) | 2.91 µM (inactive) |
| COC(=O)C(Cc1ccccc1)NC(=O)c1ccc(CNC(=S)NCc2cccc(CNC(=S)NCc3ccccc3)c2)cc1 (stereo not given) | > 62.5 µM (inactive) | > 34 µM (inactive) | > 35 µM (inactive) | > 36.4 µM (inactive) | > 34.1 µM (inactive) | > 32.9 µM (inactive) | > 32.8 µM (inactive) | > 32 µM (inactive) | > 29.9 µM (inactive) | > 62.5 µM (inactive) | > 32.2 µM (inactive) | > 34 µM (inactive) | > 34.6 µM (inactive) | 20 µM (inactive) | > 35.2 µM | > 32.8 µM (inactive) | > 32.1 µM (inactive) | > 32 µM (inactive) | > 34.3 µM (inactive) | > 36 µM (inactive) |
| CN(C)CCCNc1c2c(nc3ccc(Cl)cc13)CCCC2 | 15.9 µM (inactive) | 18.3 µM (inactive) | 5.27 µM (inactive) | 23.3 µM (inactive) | 22.3 µM (inactive) | 9.75 µM (inactive) | 12.1 µM (inactive) | 13.7 µM (inactive) | 19.1 µM (inactive) | 13.5 µM (inactive) | 14.9 µM (inactive) | 13.6 µM (inactive) | 2.55 µM (inactive) | 12.9 µM (inactive) | 13.3 µM | 0.492 µM (active) | 8.51 µM (inactive) | 10.3 µM (inactive) | 20 µM (inactive) | 13.8 µM (inactive) |
| CC1(C)CC(=O)c2c(nc3c4c([nH]c(-c5ccc(Br)cc5)c24)CC(C)(C)C3)C1 | 43.3 µM (inactive) | 98.9 µM (inactive) | 19.2 µM (inactive) | 50.4 µM (inactive) | 40.8 µM (inactive) | 49.3 µM (inactive) | 33 µM (inactive) | 22.4 µM (inactive) | 33 µM (inactive) | 76.6 µM (inactive) | 50.2 µM (inactive) | 44 µM (inactive) | 8.65 µM (inactive) | 22.8 µM (inactive) | 31.3 µM | 18.2 µM (inactive) | 19.8 µM (inactive) | 28.7 µM (inactive) | 84.9 µM (inactive) | 36.6 µM (inactive) |
